Test results as given in US20240124545A1, “COMPOSITIONS AND METHODS RELATING TO THE TREATMENT OF DISEASES” (ILC THERAPEUTICS LIMITED, priority 2021, published 2024).
Several values for one entry are separate records, joined by “and”; a condition that tells them apart may be missing. Identical values can stand only once. Like-named read-outs stand apart in the source and are kept apart here.

Tests used:
HRSV Long strain = experiment: HRSV infectivity assay, immunostaining readout in HEp-2 cells; assay type: cell-based, human respiratory syncytial virus (HRSV) Long strain
HeLa-CD4-βgal cells [1] = system: HeLa-CD4-βgal cells
HIV-1 LAI [2] = experiment: microbe, parasite or virus in culture; settings: Human immunodeficiency virus 1, 48 h, read-out: IC50 (infectivity), Control HIV Inhibitors
in vitro = settings: human
HeLa-CD4-βgal cells [3] = experiment: XTT viability (cytotoxicity) assay, uninfected HeLa-CD4-βgal cells (Experiment 4); settings: for Viability of HeLa-CD4-βgal cells in the XTT assay (percentage values): 48 hours, single data point; for Viability of Uninfected HeLa-CD4-β gal Cells (A490): XTT, raw absorbance 490 nm
HIV-1 LAI [4] = settings: for HIV Infectivity in HeLa CD4 βgal cells (β-gal units) - antiviral control / HIV Infectivity in HeLa CD4 βgal cells, percentage of vehicle - antiviral control: single data point

**Q.** Which “HRSV infection blocked by antiviral control” value (HRSV Long strain; 50 μM) does the source give for `NC(=O)c1ncn([C@@H]2O[C@H](CO)[C@@H](O)[C@H]2O)n1` [Rib, ribavirin, reference compound] here?
**A.** The value was “over 99%”.

**Q.** What about the “HRSV Infectivity in HEp-2 cells (% vehicle)” value (HRSV Long strain; control antiviral 50 μM, 72 hours) of the same compound?
**A.** The value was −4.7 % vehicle.

**Q.** What about the “HRSV Infectivity in HEp-2 cells - Raw OD- Absorbance (490 nm)” value (HRSV Long strain; control antiviral 50 μM, duplicate A490 values) of the same compound?
**A.** Its value is 0.195 and 0.176.

**Q.** Which “Viability of Uninfected HeLa-CD4-β gal Cells (% vehicle alone), controls” value (HeLa-CD4-βgal cells [1]) does the source give for `C[S+](C)[O-]` [DMSO] here?
**A.** The value was −0.5 ± 0.1 % vehicle alone.

**Q.** Which results are given for `CC(C)OC(=O)[C@H](C)N[P@](=O)(CO[C@H](C)Cn1cnc2c(N)ncnc21)Oc1ccccc1` [TAF, tenofovir alafenamide]?
**A.** IC50 (HIV-1 LAI [2]): 8 nM; CC50 at 48 h (in vitro): > 20000 nM; Viability of HeLa-CD4-βgal cells in the XTT assay (percentage values) (HeLa-CD4-βgal cells [3]; control antiviral 0.00005 μM): 111.5%; Viability of Uninfected HeLa-CD4-β gal Cells (A490) (HeLa-CD4-βgal cells [3]; control antiviral 0.00005 μM): 0.951; Viability of HeLa-CD4-βgal cells in the XTT assay (percentage values) (HeLa-CD4-βgal cells [3]; control antiviral 0.0003 μM): 101.3%; Viability of Uninfected HeLa-CD4-β gal Cells (A490) (HeLa-CD4-βgal cells [3]; control antiviral 0.0003 μM): 0.872; Viability of HeLa-CD4-βgal cells in the XTT assay (percentage values) (HeLa-CD4-βgal cells [3]; control antiviral 0.001 μM): 104.6%; Viability of Uninfected HeLa-CD4-β gal Cells (A490) (HeLa-CD4-βgal cells [3]; control antiviral 0.001 μM): 0.897; Viability of HeLa-CD4-βgal cells in the XTT assay (percentage values) (HeLa-CD4-βgal cells [3]; control antiviral 0.006 μM): 109.1%; Viability of Uninfected HeLa-CD4-β gal Cells (A490) (HeLa-CD4-βgal cells [3]; control antiviral 0.006 μM): 0.932; Viability of HeLa-CD4-βgal cells in the XTT assay (percentage values) (HeLa-CD4-βgal cells [3]; control antiviral 0.03 μM): 103.2%; Viability of Uninfected HeLa-CD4-β gal Cells (A490) (HeLa-CD4-βgal cells [3]; control antiviral 0.03 μM): 0.886; Viability of HeLa-CD4-βgal cells in the XTT assay (percentage values) (HeLa-CD4-βgal cells [3]; control antiviral 0.2 μM): 104.5%; Viability of HeLa-CD4-βgal cells in the XTT assay (percentage values) (HeLa-CD4-βgal cells [3]; control antiviral 0.8 μM): 101.5%; Viability of Uninfected HeLa-CD4-β gal Cells (A490) (HeLa-CD4-βgal cells [3]; control antiviral 0.8 μM): 0.873; Viability of HeLa-CD4-βgal cells in the XTT assay (percentage values) (HeLa-CD4-βgal cells [3]; control antiviral 4.0 μM): 104.1%; Viability of Uninfected HeLa-CD4-β gal Cells (A490) (HeLa-CD4-βgal cells [3]; control antiviral 4.0 μM): 0.894; Viability of HeLa-CD4-βgal cells in the XTT assay (percentage values) (HeLa-CD4-βgal cells [3]; control antiviral 20 μM): 88.2%; Viability of Uninfected HeLa-CD4-β gal Cells (A490) (HeLa-CD4-βgal cells [3]; control antiviral 20 μM): 0.770; HIV Infectivity in HeLa CD4 βgal cells (β-gal units) - antiviral control (HIV-1 LAI [4]; 0.00005 μM): 1,043,762 RLU; HIV Infectivity in HeLa CD4 βgal cells, percentage of vehicle - antiviral control (HIV-1 LAI [4]; 0.00005 μM): 91.9 % vehicle; HIV Infectivity in HeLa CD4 βgal cells (β-gal units) - antiviral control (HIV-1 LAI [4]; 0.0003 μM): 1,038,889 RLU; HIV Infectivity in HeLa CD4 βgal cells, percentage of vehicle - antiviral control (HIV-1 LAI [4]; 0.0003 μM): 91.5 % vehicle; HIV Infectivity in HeLa CD4 βgal cells (β-gal units) - antiviral control (HIV-1 LAI [4]; 0.001 μM): 935,932 RLU; HIV Infectivity in HeLa CD4 βgal cells, percentage of vehicle - antiviral control (HIV-1 LAI [4]; 0.001 μM): 82.4 % vehicle; HIV Infectivity in HeLa CD4 βgal cells (β-gal units) - antiviral control (HIV-1 LAI [4]; 0.006 μM): 575,616 RLU; HIV Infectivity in HeLa CD4 βgal cells, percentage of vehicle - antiviral control (HIV-1 LAI [4]; 0.006 μM): 50.6 % vehicle; HIV Infectivity in HeLa CD4 βgal cells (β-gal units) - antiviral control (HIV-1 LAI [4]; 0.03 μM): 145,403 RLU; HIV Infectivity in HeLa CD4 βgal cells, percentage of vehicle - antiviral control (HIV-1 LAI [4]; 0.03 μM): 12.6 % vehicle; HIV Infectivity in HeLa CD4 βgal cells (β-gal units) - antiviral control (HIV-1 LAI [4]; 0.2 μM): 6,426 RLU; HIV Infectivity in HeLa CD4 βgal cells, percentage of vehicle - antiviral control (HIV-1 LAI [4]; 0.2 μM): 0.3 % vehicle; HIV infection blocked by control antivirals (HIV-1 LAI [4]; 0.5 μM): ~100%; HIV Infectivity in HeLa CD4 βgal cells (β-gal units) - antiviral control (HIV-1 LAI [4]; 0.8 μM): 2,064 RLU; HIV Infectivity in HeLa CD4 βgal cells, percentage of vehicle - antiviral control (HIV-1 LAI [4]; 0.8 μM): −0.1 % vehicle; HIV Infectivity in HeLa CD4 βgal cells (β-gal units) - antiviral control (HIV-1 LAI [4]; 4.0 μM): 1,893 RLU; HIV Infectivity in HeLa CD4 βgal cells, percentage of vehicle - antiviral control (HIV-1 LAI [4]; 4.0 μM): −0.1 % vehicle; HIV Infectivity in HeLa CD4 βgal cells (β-gal units) - antiviral control (HIV-1 LAI [4]; 20 μM): 1,475 RLU; HIV Infectivity in HeLa CD4 βgal cells, percentage of vehicle - antiviral control (HIV-1 LAI [4]; 20 μM): −0.1 % vehicle; HIV Infectivity in HeLa-CD4-βgal cells (% vehicle) (HIV-1 LAI [4]; control antiviral 0.5 μM, duplicate data points): 0.0 % vehicle; HIV Infectivity in HeLa CD4 βgal cells (β-galactosidase units) (HIV-1 LAI [4]; control antiviral 0.5 μM, individual values): 3,376 RLU and 3,509 RLU
